The results in this text go back to ChEMBL document CHEMBL6109120, “Discovery of Novel SIK2/3 Inhibitors for the Potential Treatment of MEF2C+ Acute Myeloid Leukemia (AML)” (J Med Chem, 2025).

In general, pIC50 refers to the negative decadic logarithm of the IC50, by convention in mol/L.

In experiment [1] the target is Tyrosine-protein kinase Lck (Homo sapiens, UniProt P06239). In words: Binding affinity to human LCK by KINOMEscan assay.
The target in experiment [2] is Serine/threonine-protein kinase SIK2 (Homo sapiens, UniProt Q9H0K1). Put plainly: Inhibition of recombinant full length human SIK2 assessed as luminescence signal using AMARAtide/ATP as substrate measured after 120 mins by microplate reader.
In experiment [3] the target is Serine/threonine-protein kinase SIK1 (Homo sapiens, UniProt P57059). In words: Inhibition of human SIK1 (02 to 131) assessed as luminescence signal using AMARAtide/ATP as substrate measured after 120 mins by microplate reader.
For experiment [4], the target named is Serine/threonine-protein kinase SIK3 (Homo sapiens, UniProt Q9Y2K2). Put plainly: Inhibition of recombinant human SIK3 assessed as luminescence signal using AMARAtide/ATP as substrate measured after 120 mins by microplate reader.
The nature of experiment [5]: Binding affinity to human ABL by KINOMEscan assay.

pIC50: −log10 of the molar value.

Sequence of Serine/threonine-protein kinase SIK2 (Q9H0K1 whole entry): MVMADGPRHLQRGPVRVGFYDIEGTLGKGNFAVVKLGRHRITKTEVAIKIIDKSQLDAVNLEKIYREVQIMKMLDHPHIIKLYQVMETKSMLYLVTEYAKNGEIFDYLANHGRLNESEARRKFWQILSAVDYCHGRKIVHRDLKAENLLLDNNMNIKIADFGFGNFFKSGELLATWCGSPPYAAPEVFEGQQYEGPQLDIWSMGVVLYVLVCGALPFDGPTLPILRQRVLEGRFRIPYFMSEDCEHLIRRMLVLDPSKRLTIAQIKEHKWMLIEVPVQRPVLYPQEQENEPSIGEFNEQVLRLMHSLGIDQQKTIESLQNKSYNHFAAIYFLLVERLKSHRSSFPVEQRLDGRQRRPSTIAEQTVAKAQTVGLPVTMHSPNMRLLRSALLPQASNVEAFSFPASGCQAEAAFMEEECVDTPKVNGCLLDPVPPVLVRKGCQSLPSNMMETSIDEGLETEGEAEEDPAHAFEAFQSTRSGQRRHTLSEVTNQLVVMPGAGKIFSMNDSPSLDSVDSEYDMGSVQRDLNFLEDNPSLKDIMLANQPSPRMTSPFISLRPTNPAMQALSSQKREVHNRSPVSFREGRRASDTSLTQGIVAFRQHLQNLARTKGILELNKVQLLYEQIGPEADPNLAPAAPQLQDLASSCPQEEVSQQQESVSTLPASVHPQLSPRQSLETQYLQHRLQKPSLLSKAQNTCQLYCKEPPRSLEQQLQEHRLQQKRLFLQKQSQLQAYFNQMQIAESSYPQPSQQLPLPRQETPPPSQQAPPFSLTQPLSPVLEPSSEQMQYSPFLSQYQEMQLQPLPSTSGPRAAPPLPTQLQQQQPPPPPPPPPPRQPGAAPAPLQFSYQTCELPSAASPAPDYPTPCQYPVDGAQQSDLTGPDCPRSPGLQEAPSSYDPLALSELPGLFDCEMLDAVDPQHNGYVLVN
Sequence of Tyrosine-protein kinase Lck (P06239 whole entry): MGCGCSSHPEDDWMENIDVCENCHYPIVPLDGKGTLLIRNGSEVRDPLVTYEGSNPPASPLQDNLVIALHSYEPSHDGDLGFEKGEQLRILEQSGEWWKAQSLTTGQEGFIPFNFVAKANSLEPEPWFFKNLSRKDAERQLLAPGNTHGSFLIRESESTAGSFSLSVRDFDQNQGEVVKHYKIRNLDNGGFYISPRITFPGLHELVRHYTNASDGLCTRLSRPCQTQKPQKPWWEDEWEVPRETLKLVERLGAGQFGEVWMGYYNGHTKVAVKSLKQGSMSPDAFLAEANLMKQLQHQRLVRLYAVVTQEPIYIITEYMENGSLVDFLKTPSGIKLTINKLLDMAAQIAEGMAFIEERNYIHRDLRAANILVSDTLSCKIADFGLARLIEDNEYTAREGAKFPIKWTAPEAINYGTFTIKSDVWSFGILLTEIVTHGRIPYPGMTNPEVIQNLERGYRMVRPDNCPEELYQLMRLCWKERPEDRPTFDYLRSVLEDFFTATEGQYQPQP
Sequence of Serine/threonine-protein kinase SIK1 (P57059 whole entry): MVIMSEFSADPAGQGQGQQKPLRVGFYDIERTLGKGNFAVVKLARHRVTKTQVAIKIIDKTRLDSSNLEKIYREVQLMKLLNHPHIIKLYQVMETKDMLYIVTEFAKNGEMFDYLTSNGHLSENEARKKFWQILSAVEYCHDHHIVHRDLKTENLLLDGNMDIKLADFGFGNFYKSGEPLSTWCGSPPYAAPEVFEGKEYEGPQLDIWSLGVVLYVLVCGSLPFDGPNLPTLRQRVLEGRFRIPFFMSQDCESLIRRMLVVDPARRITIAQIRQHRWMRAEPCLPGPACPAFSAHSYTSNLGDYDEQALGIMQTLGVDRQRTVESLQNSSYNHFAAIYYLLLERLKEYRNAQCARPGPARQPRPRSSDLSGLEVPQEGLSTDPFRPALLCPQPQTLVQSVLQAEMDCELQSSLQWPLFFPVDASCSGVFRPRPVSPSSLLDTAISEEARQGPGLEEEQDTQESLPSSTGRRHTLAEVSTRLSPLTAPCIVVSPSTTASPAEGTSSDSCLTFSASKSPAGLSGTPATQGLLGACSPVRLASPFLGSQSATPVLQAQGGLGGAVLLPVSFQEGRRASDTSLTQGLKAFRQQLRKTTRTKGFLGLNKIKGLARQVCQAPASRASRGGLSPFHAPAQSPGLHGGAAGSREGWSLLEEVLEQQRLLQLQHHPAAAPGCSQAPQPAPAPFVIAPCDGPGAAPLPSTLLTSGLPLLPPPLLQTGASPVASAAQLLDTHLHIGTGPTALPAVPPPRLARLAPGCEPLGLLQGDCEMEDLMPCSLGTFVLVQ
Sequence of Serine/threonine-protein kinase SIK3 (Q9Y2K2 whole entry): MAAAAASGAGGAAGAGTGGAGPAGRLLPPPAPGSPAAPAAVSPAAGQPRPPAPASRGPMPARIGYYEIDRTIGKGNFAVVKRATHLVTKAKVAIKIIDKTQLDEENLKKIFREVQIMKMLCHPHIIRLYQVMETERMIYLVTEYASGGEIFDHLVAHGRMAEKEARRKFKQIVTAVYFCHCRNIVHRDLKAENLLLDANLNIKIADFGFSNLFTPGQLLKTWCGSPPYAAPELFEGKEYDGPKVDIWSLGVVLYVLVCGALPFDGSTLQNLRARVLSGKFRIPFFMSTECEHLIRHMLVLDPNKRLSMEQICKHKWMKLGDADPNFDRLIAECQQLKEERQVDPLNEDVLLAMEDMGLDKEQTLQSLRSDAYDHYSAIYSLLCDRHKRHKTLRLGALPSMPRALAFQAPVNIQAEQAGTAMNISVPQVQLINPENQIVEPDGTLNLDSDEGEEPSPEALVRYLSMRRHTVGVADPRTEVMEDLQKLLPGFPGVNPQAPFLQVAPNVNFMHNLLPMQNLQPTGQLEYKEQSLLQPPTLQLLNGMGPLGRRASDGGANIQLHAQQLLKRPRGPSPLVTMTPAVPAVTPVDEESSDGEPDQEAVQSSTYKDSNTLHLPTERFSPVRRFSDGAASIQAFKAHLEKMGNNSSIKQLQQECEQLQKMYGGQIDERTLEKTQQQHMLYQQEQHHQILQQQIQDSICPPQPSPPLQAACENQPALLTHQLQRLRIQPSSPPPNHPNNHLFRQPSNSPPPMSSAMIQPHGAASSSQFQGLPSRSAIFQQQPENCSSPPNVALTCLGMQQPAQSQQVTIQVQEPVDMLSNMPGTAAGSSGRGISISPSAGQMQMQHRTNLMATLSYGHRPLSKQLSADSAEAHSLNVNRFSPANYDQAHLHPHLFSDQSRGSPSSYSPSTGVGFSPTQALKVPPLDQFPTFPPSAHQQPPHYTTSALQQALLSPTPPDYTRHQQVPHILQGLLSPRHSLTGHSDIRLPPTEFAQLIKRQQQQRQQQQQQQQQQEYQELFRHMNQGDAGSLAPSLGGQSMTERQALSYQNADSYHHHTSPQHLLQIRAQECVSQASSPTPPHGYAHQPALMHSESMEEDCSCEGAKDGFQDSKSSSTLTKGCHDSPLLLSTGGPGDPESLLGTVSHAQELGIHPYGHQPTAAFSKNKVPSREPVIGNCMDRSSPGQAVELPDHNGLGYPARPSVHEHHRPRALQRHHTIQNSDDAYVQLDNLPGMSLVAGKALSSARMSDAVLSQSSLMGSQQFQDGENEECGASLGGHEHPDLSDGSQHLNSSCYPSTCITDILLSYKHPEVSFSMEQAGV

As to `Cc1cc(-c2cc(O)ccc2Cl)cc2nnc(Nc3ccc(OCCN4CCCC4)cc3)nc12`, the pIC50 in experiment [1] is 8.57.
With `COc1cc(-c2cc(-c3cnn(C4CCOCC4)c3)cnc2N)cc2c1C(=O)N(CC#N)CC2`, the pIC50 in experiment [2] is 8.31; in experiment [3] it was 6.93; in experiment [4], 8.24.
`COc1cc(-c2cc(-c3cnn(S(C)(=O)=O)c3)cnc2N)cc2c1C(=O)N(CC(F)(F)F)CC2`: in experiment [2], the pIC50 is 7.41.
`CNC(=O)c1cc(Oc2ccc(NC(=O)Nc3cc(C(C)(C)C)nn3-c3ccc4ncccc4c3)c(F)c2)ccn1` [REBASTINIB] had a pIC50 in experiment [5] of 7.57.
